# Laboratory results as given in publication PMC10484922, “Discovery of a selective and biologically active low-molecular weight antagonist of human interleukin-1β” (Nature Communications, 2023).
# Tests used:
# [1] = system: normal human dermal fibroblasts stimulated with hIL-1α; experiment: Human fibroblast IL-6 release assay, hIL-1α stimulated; type: cell-based; parameters: IL-1alpha (mean, SD): mean readout (IL-6 release): unit not given here; details: Figure 3c; for Mean OD (OD 450nm): compound 1 nM; for IL-1alpha (mean, SD): mean readout (IL-6 release): compound @ 1nM
# Procedure: (§1) We used HEK-Blue™ IL-1β cells that respond specifically to IL-1 (# hkb-il1b, InvivoGen). These cells can detect IL-1α and IL-1β, as these cytokines bind to the same receptor, IL-1R1. They express a Seap reporter gene under the control of the IFN-β minimal promoter fused to five NF-kappaB and five AP-1 binding sites. Thirty microliters (300,000 cells/ml) per well of a 384-well plate were plated overnight. Cells were then stimulated with graded concentrations of cytokines (hIL-1α or hIL-1β) in the absence or presence of canakinumab (Ilaris®, ILARI LYVI 150MG 22GLW.012, batch U003 0409)[22], anakinra (Kineret®, 100 mg/0.67 ml injectable solution, Sobi)[23], or compound (S)-2 (compounds were pre-mixed for 1 h with the cytokine prior to addition to cells) and further incubated overnight before assessment of Seap activity.
# Normal human dermal fibroblasts (NHDF) from Clonetics^TM (LONZA, Cat # CC-2509 (NHDF-Neo), Lot # 0000234242, used at passage ≤14) were seeded at a density of 5000 cells/well in 100 μL of culture medium using 96-well plates (flat bottom, TCT). Treatment with cytokines/compounds was performed as described above. Cells were incubated for another 6 h and were subsequently spun down (320g/3 min). IL-6 was measured in the supernatant by ELISA (BioLegend, # 430503) or HTRF (Cisbio, #62HIL06PEH).
# [2] = system: HEK-Blue IL-1β cells stimulated with hIL-1β; experiment: HEK293 reporter gene assay, hIL-1β as trigger; type: cell-based, human; details: inhibitor 3nM
# Procedure: as §1
substance,measurement,setting,value
canakinumab: anti-hIL-1β antibody [reference compound],Mean OD (OD 450nm),[1]; hu IL-1A 0 pg/mL,0.041
same,Mean OD (OD 450nm),[1]; hu IL-1A 40 pg/mL,0.388
same,Mean OD (OD 450nm),[1]; hu IL-1A 80 pg/mL,0.589
same,Mean OD (OD 450nm),[1]; hu IL-1A 120 pg/mL,0.693
same,Mean OD (OD 450nm),[1]; hu IL-1A 160 pg/mL,0.774
same,Mean OD (OD 450nm),[1]; hu IL-1A 200 pg/mL,0.785
same,"IL-1alpha (mean, SD): mean readout (IL-6 release)",[1]; hu IL-1a 0 pg/mL,0
same,"IL-1alpha (mean, SD): mean readout (IL-6 release)",[1]; hu IL-1a 40 pg/mL,2114.2
same,"IL-1alpha (mean, SD): mean readout (IL-6 release)",[1]; hu IL-1a 80 pg/mL,3604.7
same,"IL-1alpha (mean, SD): mean readout (IL-6 release)",[1]; hu IL-1a 120 pg/mL,4369.8
same,"IL-1alpha (mean, SD): mean readout (IL-6 release)",[1]; hu IL-1a 160 pg/mL,4969.2
same,"IL-1alpha (mean, SD): mean readout (IL-6 release)",[1]; hu IL-1a 200 pg/mL,5051.1
same,"reporter gene assay signal, mean (Figure 3d)",[2]; IL-1beta 3.04596 pg/ml,0.06
same,"reporter gene assay signal, mean (Figure 3d)",[2]; IL-1beta 6.09192 pg/ml,0.06
same,"reporter gene assay signal, mean (Figure 3d)",[2]; IL-1beta 12.1838 pg/ml,0.06
same,"reporter gene assay signal, mean (Figure 3d)",[2]; IL-1beta 24.3677 pg/ml,0.06
same,"reporter gene assay signal, mean (Figure 3d)",[2]; IL-1beta 48.7353 pg/ml,0.06
same,"reporter gene assay signal, mean (Figure 3d)",[2]; IL-1beta 97.4707 pg/ml,0.07
same,"reporter gene assay signal, mean (Figure 3d)",[2]; IL-1beta 194.941 pg/ml,0.08
same,"reporter gene assay signal, mean (Figure 3d)",[2]; IL-1beta 389.883 pg/ml,0.1
same,"reporter gene assay signal, mean (Figure 3d)",[2]; IL-1beta 779.766 pg/ml,0.2
same,"reporter gene assay signal, mean (Figure 3d)",[2]; IL-1beta 1559.53 pg/ml,0.42
same,"reporter gene assay signal, mean (Figure 3d)",[2]; IL-1beta 3119.06 pg/ml,0.74
same,"reporter gene assay signal, mean (Figure 3d)",[2]; IL-1beta 6238.12 pg/ml,1.18
same,"reporter gene assay signal, mean (Figure 3d)",[2]; IL-1beta 12476.2 pg/ml,1.55
same,"reporter gene assay signal, mean (Figure 3d)",[2]; IL-1beta 24952.5 pg/ml,1.78
same,"reporter gene assay signal, mean (Figure 3d)",[2]; IL-1beta 49905 pg/ml,1.85
